These results are taken from PubChem BioAssay (NCI).

The structures appear in SMILES notation.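 Growth conditions: 96-well plates. Treatment: test compound, 48 hours, 5 concentrations. Analysis: linear interpolation between bracketing concentrations; unreached endpoints set to highest concentration. The concentration for full growth arrest is given as TGI.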

What all share (test): growth of human tumour cells (NCI), 48 h
In test [1] the test system is DU-145 prostate.
Test [2] deals with EKVX NSCLC.
In test [3] the test system is HOP-62 NSCLC.
The test system of test [4] is HOP-92 NSCLC.
The test system of test [5] is MDA-N.
In test [6] the test system is NCI-H522 lung.
For test [7], the system named is NCI/ADR-RES ovarian.
In test [8] the test system is SR leukemia.
In test [9] the test system is U251 CNS.
Test [10] has as its system UACC-257 melanoma.
Test [11] has as its system UO-31 renal.
The test system of test [12] is DMS 114 small cell lung.

Take `CCCCC1Cc2cc(O)ccc2-c2n1c1cc(O)ccc1[n+]2C` (stereo not drawn) (tested in a mixture with another compound): the TGI in [1] was > 100 µM; in test [2], > 100 µM; in test [3] it was > 100 µM; in test [4], 73.8 µM; in test [5], > 100 µM; in [6] it was > 47.4 µM. For the same molecule, the TGI is > 100 µM in test [7]; > 100 µM in test [8]; > 62.3 µM in [9]; 80 µM in test [10]; > 100 µM in [11].

For the molecule `C1CNCCN2CCCNCCN(C1)CC2`, the TGI in test [1], in [2], in test [3], in test [4], in [5] and in test [6] was > 100 µM in each case. Further, the TGI in test [7], in [8], in test [9], in test [10] and in test [11] was > 100 µM in each case.

For `c1ccc(Cc2cccc3cc(-c4ccc(-c5ccccc5)cc4)[nH]c23)cc1`, the TGI in test [1], in test [2], in test [3], in test [4], in test [5] and in [6] was > 100 µM throughout. Besides, the TGI is > 100 µM in test [7]; 47 µM in [8]; > 100 µM in [9]; > 100 µM in test [10]; > 100 µM in [11].

As for `CCN(CC)CC(O)c1ccc2ccc3ccccc3c2c1` (stereo not drawn), the TGI in [1] is 33 µM; in test [2], 29.5 µM; in test [3] it was 29.6 µM; in test [4], 31.3 µM; in test [5], 31 µM; in test [6] it was 31.9 µM. For the same molecule, the TGI in [7] was determined as 33.6 µM; in [8] it was 24.8 µM; in [9], 26 µM; in [10], 31.5 µM; in [11] it was 24.1 µM.

On to `Cc1nn2c(N)cc(=O)nc2nc1/C=C/c1ccc(N(C)C)cc1`, for which the TGI in test [1] is > 100 µM; in test [2], > 100 µM; in test [3], > 100 µM; in test [4], > 43.6 µM; in test [5] it was > 100 µM; in test [6], 7.62 µM. In addition, the TGI in test [7], in test [8], in [9], in [10] and in test [11] was > 100 µM in each case.

Regarding `CC(/C=C/c1ncccc1OCCCCCC(=O)O)=N\NC1=NCCN1`, the TGI in test [12], in [2], in [3], in test [4], in [6] and in [8] was > 100 µM each time. Moreover, the TGI in test [11] was > 100 µM.

Turning to `COC(=O)C12CCC(C(=O)OC)(Cc3c(c4ccccc4n3S(=O)(=O)c3ccccc3)C1)C2=O` (stereo not drawn), the TGI in [1] was > 100 µM; in [2], > 100 µM; in [3], > 100 µM; in test [4], > 100 µM; in test [5], > 100 µM; in test [6], 97.1 µM. Also, the TGI in [7], in [8], in [9], in test [10] and in test [11] was > 100 µM each time.

For the molecule `CCOC(=O)C(SCCO)C(C(=O)OCC)n1ccc(N)nc1=O` (stereo not drawn), the TGI in test [1], in [2], in [3], in test [4], in test [5] and in test [6] was > 100 µM throughout. Moreover, the TGI in test [7], in [8], in test [9], in [10] and in test [11] was > 100 µM each time.

On to `C/C(Cl)=N\OC(=O)Nc1ccc([N+](=O)[O-])cc1`, for which the TGI was 31.8 µM in test [1]; 35.2 µM in test [2]; > 100 µM in test [3]; 5.65 µM in [4]; 25.1 µM in test [5]; 3.75 µM in test [6]. Also, the TGI in test [7] came to 29.3 µM; in test [8], 74.2 µM; in test [9] it was 33.8 µM; in test [10] it was 30.9 µM; in test [11] it was 11.4 µM.

Regarding `CS(C)(=O)=N/C=C\C(=O)C(Cl)(Cl)Cl`, the TGI in test [1], in [2], in [3], in [4], in [5] and in [6] was > 100 µM in each case. Besides, the TGI in test [7], in test [8], in test [9], in test [10] and in test [11] was > 100 µM in each case.

In the case of `CN(C)C(=S)Nc1nnc(NC23CC4CC(CC(C4)C2)C3)s1`, the TGI was 63.1 µM in test [12]; 59.7 µM in test [2]; 33.9 µM in test [3]; 34.9 µM in test [6]; 57.9 µM in test [8]; 25.3 µM in test [9]. Moreover, the values for the TGI in [10] and in test [11] were 32.5 µM and 25.2 µM, respectively.

Take `O=c1oc2ncccc2n1Cc1ccc([N+](=O)[O-])cc1`: the TGI in test [1], in [2], in test [3], in test [4], in test [5] and in test [6] was > 100 µM each time. Moreover, the TGI in test [7], in test [8], in test [9], in test [10] and in test [11] was > 100 µM throughout.

Take `CCN(CC)CCN1c2ccccc2Sc2ccc3ccccc3c21`: the TGI in test [1] turned out to be 12.3 µM; in [2], 20.1 µM; in test [3] it was 29 µM; in [4], 12.8 µM; in [5] it was 25.3 µM; in test [6] it was 27.9 µM. Also, the TGI in test [7] turned out to be 25.6 µM; in [8], 20.9 µM; in [9], 22.5 µM; in test [10], 21.5 µM; in [11], 19.1 µM.

`COc1ccc2c(c1)/C(=C(\C(Cl)=C(Cl)Cl)[N+](=O)[O-])N2`: the TGI was > 100 µM in test [1]; > 100 µM in [2]; > 100 µM in test [3]; > 100 µM in test [4]; > 100 µM in [5]; 87 µM in test [6]. Also, the TGI was > 100 µM in [7]; 49.3 µM in test [8]; > 100 µM in test [9]; > 100 µM in [10]; > 100 µM in test [11].

`Cc1csc2c(P(=O)(OC(C)C)OC(C)C)c(-c3ccccc3)cn12`: the TGI worked out at 32.9 µM in test [1]; 32.5 µM in test [2]; 33.1 µM in [3]; 33.5 µM in test [4]; 32.5 µM in [5]; 30.7 µM in test [6]. Also, the TGI worked out at 36.2 µM in test [7]; 36.7 µM in test [8]; 29.5 µM in test [9]; 27.8 µM in test [10]; 31.8 µM in test [11].

With `COC(=O)N1CC[C@@H]2CCC=C(c3cccc4c3OCO4)[C@@H]21`, the TGI in [1], in test [2], in test [3], in [4], in [5] and in test [6] was > 100 µM each time. In addition, the TGI in test [7], in test [8], in [9], in test [10] and in test [11] was > 100 µM in each case.

Regarding `O=C1C(NS(=O)(=O)c2ccccc2)=C(n2cnc3ccccc32)C(=O)c2ccccc21`, the TGI in [1] was > 100 µM; in [2], > 100 µM; in test [3], > 100 µM; in test [4], > 100 µM; in test [5] it was > 100 µM; in test [6], 53.7 µM. The TGI in test [7], in test [8], in test [9], in test [10] and in [11] was > 100 µM each time.

Take `C#CCNC(=O)CCC(N)C(=O)O` (stereo not drawn): the TGI in test [12], in [2], in test [3], in test [4], in [6] and in test [7] was > 100 µM each time. Moreover, the TGI in test [9], in test [10] and in [11] was > 100 µM each time.

In the case of `COC1/C=C\C=C(/C)C(=O)NC2=CC(=O)C=C(C2=O)C(OC)C(C)CC(OC)C(OC)C(C)/C=C(/C)C1OC(N)=O` (stereo not drawn), the TGI in [12] came out at 10.1 µM; in test [2] it was 20.9 µM; in test [3], 8.05 µM; in test [4], 4.52 µM; in test [6], 1.1 µM; in test [7], 21.8 µM. The figures for the TGI in [9], in test [10] and in test [11] were 25.8 µM, 19.6 µM and 30 µM, respectively.

Regarding `CCOC(=O)C(Cc1ccc2c(c1)CCC2)(Cc1ccc2c(c1)CCC2)C(=O)OCC`, the TGI in test [1], in [2], in test [3], in [4], in test [5] and in test [6] was > 100 µM each time. Also, the TGI in test [7] is > 100 µM; in test [8], 55.1 µM; in [9] it was > 100 µM; in test [10], > 100 µM; in [11], > 100 µM.

For `Cc1ccc2nc3c(C(=O)NCCN(C)C)cccc3cc2c1`, the TGI in [12] was found to be 5.32 µM; in test [2], 2.78 µM; in test [3], 7.05 µM; in test [4], 5.08 µM; in test [7], 4.25 µM; in test [9], 11.7 µM. For the same molecule, the TGI came out at 4.56 µM in test [10] and 2.96 µM in test [11].

As to `Oc1c(C(O)(c2ccccc2)c2ccc3ccccc3c2O)ccc2ccccc12`, the TGI in test [1] was determined as 34.6 µM; in test [2], 50.7 µM; in test [3] it was 35.6 µM; in [4], 24.1 µM; in test [5], 28.5 µM; in [6], 16.5 µM. In addition, the TGI came out at 43.1 µM in test [7]; 10.7 µM in test [8]; 21.8 µM in test [9]; 23.4 µM in [10]; 24.7 µM in [11].

For the molecule `C=C1CC(OC(C)=O)/C=C(/C)CCC(C(C)(C)O)CC1O` (stereo not drawn), the TGI in test [1], in test [2], in test [3], in [4], in [5] and in test [6] was > 100 µM throughout. Moreover, the TGI in test [7], in test [8], in test [9], in [10] and in test [11] was > 100 µM in each case.

Turning to `CCCCCCCCCc1cc(O)c(O)cc1CCCCCCCCC`, the TGI in [1], in [2], in test [3], in test [4], in [5] and in [6] was > 10 µM throughout. The TGI in test [7], in test [8], in [9], in test [10] and in test [11] was > 10 µM in each case.

With `NCCCNCCSSCc1ccccc1CSSCCNCCCN`, the TGI in [12] is > 100 µM; in [2], > 100 µM; in test [3] it was > 100 µM; in test [4], 87.9 µM; in test [6] it was 26.7 µM; in [9], > 100 µM. For the same molecule, the TGI in test [10] and in [11] was > 100 µM in each case.
